In article PMC12549899 (Nature Communications, 2025):
Where “and” joins values, the source holds several entries; their conditions need not be identical. Equal entries are not always repeated.

Molecular target: T1, DrOTOP1 L205W (Danio rerio, UniProt Q7ZWK8, L205W)
T1 construct: A previously generated codon-optimized full-length DrOTOP1[8]; (UniProt: Q7ZWK8) construct; expressed in transfected cells; host or cells: HEK-293 (CRL-1573, ATCC)
T1 sequence (Q7ZWK8 1-586 L205W): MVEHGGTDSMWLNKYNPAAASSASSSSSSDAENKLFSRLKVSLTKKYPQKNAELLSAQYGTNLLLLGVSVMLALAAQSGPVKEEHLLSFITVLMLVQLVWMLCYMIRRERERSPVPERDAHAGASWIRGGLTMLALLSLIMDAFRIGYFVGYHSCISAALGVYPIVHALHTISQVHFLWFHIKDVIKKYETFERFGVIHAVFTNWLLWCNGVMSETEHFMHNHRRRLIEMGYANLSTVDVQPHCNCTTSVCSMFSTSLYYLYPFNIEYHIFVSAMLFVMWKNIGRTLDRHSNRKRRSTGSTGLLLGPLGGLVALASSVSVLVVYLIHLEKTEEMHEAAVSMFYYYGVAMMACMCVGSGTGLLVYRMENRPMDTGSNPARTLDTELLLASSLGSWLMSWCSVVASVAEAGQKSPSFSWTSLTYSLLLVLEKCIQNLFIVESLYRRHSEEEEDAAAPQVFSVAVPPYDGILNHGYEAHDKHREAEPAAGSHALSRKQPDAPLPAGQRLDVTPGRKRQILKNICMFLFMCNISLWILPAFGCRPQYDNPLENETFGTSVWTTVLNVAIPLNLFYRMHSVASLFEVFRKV
Assay: Whole-cell patch-clamp, inhibition of acid-evoked currents, DrOTOP1 L205W
Assay type: cell-based, zebrafish (Danio rerio)
Details: single cells or mean; for Inhibition of currents: 10 µM
Description: To functionally test the significance of the two binding sites identified by cryo-EM, we generated point mutations of DrOTOP1 using the binding poses and conformational changes observed in DrOTOP1_C2.2 to guide our mutations. As per the binding pose that best fits our cryo-EM density, C2.2 forms the following interactions in the outer site: hydrophobic packing against many non-polar residues W126, G130, M133, L134, F271, F570, and M573, and π-stacking with W532 (Fig. 5A). In addition, C2.2 could potentially form H-bonds with E267, if the sidechain is protonated or a water bridge is present, and with H574 if it moves closer (Fig. 5A). Likewise, C2.36 presents a heterocyclic nitrogen that can potentially form a H-bond with E267, similarly, provided a protonation or water bridge is present (Fig. 5B). In addition, C2.36 forms a T-shaped π-stacking interaction with H574, whose sidechain has rotated 90 degrees (compared to DrOTOP1_apo), presumably to accommodate the interaction (Fig. 5B). Considering other inhibitors discovered from the second round of screening, many contain functional groups like the carbonyl groups of Group 1 molecules and the heterocyclic nitrogen atoms of Group 2 molecules (Supplementary Fig. 3E), that can potentially form similar H-bonds with E267 as C2.2 and C2.36, assuming the binding modes are similar. In the central site, C2.2 binds with the following interactions: hydrophobic packing with residues V201, F271, A274, V278, and A388, π-stacking with F277, and H-bonding with E384 (Fig. 5C).
We next tested mutations of the central site (L205W, A274W, F277A, E384A L385W, A388W). V201W and S389W, two additional central site mutations, were excluded from the study due to complete loss of channel activity. […]
Whole-cell patch-clamp recording was performed as previously described[6],[22],[25]. Recordings were made with an Axopatch 200B amplifier, digitized with a Digidata 1322a 16-bit data acquisition system, acquired with pClamp 8.2 and analyzed with Clampfit 10 (Molecular Devices). […]

C=C(C)COc1ccccc1NC(=O)c1nc[nH]c1C [C2.2]
Inhibition of currents (mean): 69.03% | Inhibition of currents (single cells): 76.6896% and 67.1049% and 68.1116% and 69.0311% | inhibition at 10 µM: 64.2%
